Values belong to the compound of their own block, whether it stands above or below them.
How the values were obtained:
[1] = system: cytokinin-dependent tobacco callus Nicotiana tabacum L. cv. Wisconsin 38; experiment: Growth of cytokinin-dependent tobacco callus; type: cell-based; details: for Activity (%) [10^−5 mol · l^−1 KR = 100%]: at concentration with highest activity, relative to control cytokinin; for Concentration with highest activity: tobacco callus fresh weight after four weeks
Experimental: Cytokinin effect of newly prepared derivatives was tested using cytokinin-dependent tobacco callus. The cytokinin-dependent tobacco callus Nicotiana tabacum L. cv. Wisconsin 38 was maintained at 25° C. in darkness on modified MS medium, containing per 1 liter: 4 μmol of nicotinic acid, 2.4 μmol of pyridoxine hydrochloride, 1.2 μmol of thiamine, 26.6 μmol of glycine, 1.37 μmol of glutamine, 1.8 μmol of myo-inositol, 30 g of sucrose, 8 g of agar, 5.37 μmol of NAA and 0.5 μmol of the compound tested. Subcultivation was carried out every three weeks. Fourteen days before the bioassay, the callus tissue was transferred to the media without 6-benzylaminopurine. The biological activity was determined from the increase of the fresh callus weight after four weeks of cultivation. Five replicates were prepared for each concentration of the compound tested and the entire test was repeated twice. […] The compounds to be tested were dissolved in dimethylsulfoxide (DMSO) and the solution brought up to 10^−3 M with distilled water. […] The stimulatory activity was calculated from the dose-dependent fresh weight callus growth curves.
From the obtained data, the concentration with the highest activity was selected for each compound tested. Relative activity of the compound at this concentration was calculated (Table 5). […]

[2] = system: Normal human fibroblasts BJ; experiment: Calcein AM cytotoxicity assay, BJ; type: cell-based; details: 72 hours incubation
From the text: (§1) Because toxic compounds negatively influence metabolic processes in cells, many standard cytotoxicity assays are based on measurement of metabolisation rate of various artificial substrates. Resulting product is then quantified e.g. by means of spectrometry. The assays can be easily modified for use in 96-well plates. For evaluation of cytotoxic effect of the novel substituted 9-substituted cytokinin derivatives of this invention, a microtiter assay based on quantification of metabolisation of Calcein AM was used. The assay is widely used in drug screening programs and in chemosensitivity testing. In the living cells, Calcein AM is enzymatically hydrolysed and accumulation of resulting calcein is manifested by green fluorescence.
(§2) In the routine screening the following cell lines have been used: CEM (T-lymphoblastoid leukemia), HL-60 (promyelocytic leukemia), K-562 (human erythroleukemia), MCF-7 (breast carcinoma), HOS (human osteogenic sarcoma), and G-361 (human malignant melanoma). Normal human fibroblasts BJ were used as a control for routine screening of the compounds. The cells were kept in Nunc/Corning 80 cm^2 plastic bottles and grown in cell culture medium (DMEM containing 5 g/l glucose, 2 mM glutamine, 100 U/ml penicilline, 100 μg/ml streptomycine, 10% fetal bovine serum and sodium hydrogencarbonate), the compounds were prepared according to the procedure of the present invention.
(§3) The cell suspensions were prepared and diluted according to the particular cell type and the expected target cell density (2.500-30.000 cells per well based on cell growth characteristics) and pippetted (80 μl) into 96-well plates. Inoculates were allowed a pre-incubation period of 24 hours at 37° C. and 5% CO2 for stabilisation. Tested compound was added in total volume of 20 μl of water at time zero. Usually, test compound was evaluated at six 3-fold dilutions. In routine testing, the highest concentration tested was 166.7 μM. All drug concentrations were tested in triplicates. Incubations of cells with the test compounds lasted for 72 hours at 37° C., in 5% CO2 atmosphere and 100% humidity. At the end of incubation period Calcein AM in PBS was added into final concentration of 1 μg/ml. After another 1 hour of incubation fluorescence (FD) was measured with the Labsystem FIA Reader Fluoroscan Ascent (Microsystems). Tumor cell survival (TCS) was estimated using the following equation: […]=(FDdrug exposed well/FDcontrol well)×100%. The GI50 value, the drug concentration causing 50% reduction of esterase activity, was calculated from the obtained dose response curves (FIG. 1).
(§4) Cytoxicity of novel compounds was tested on panel of cell lines of different histogenetic and species origin (Table 3). […] The effective novel derivatives killed tumour cells in concentrations close to 0.1-50 μM.

[3] = system: HOS (human osteogenic sarcoma); experiment: Calcein AM cytotoxicity assay, HOS; type: cell-based; details: 72 hours incubation
From the text: as §1, §2, §3, §4

Human lymphocytes = experiment: Immunosuppressive activity, 3H-thymidine incorporation in concanavalin A activated lymphocytes; type: cell-based; details: 72 hours, [3H]-TdR incorporation, read-out: Human lymphocytes ED50
From the text: One of the most important parameters of specific cellular immunity is the proliferative response of lymphocytes to antigens or polyclonal mitogens. The majority of normal mammalian peripheral lymphocytes comprise resting cells. Antigens or nonspecific polyclonal mitogens have the capacity to activate lymphoid cells and this is accompanied by dramatic changes of intracellular metabolism (mitochondrial activity, protein synthesis, nucleic acids synthesis, formation of blastic cells and cellular proliferation). […] Variety of in vitro assays was developed to measure proliferative response of lymphocytes. The most commonly used is ^3H-thymidine incorporation method.
During cell proliferation, DNA has to be replicated before the cell is divided into two daughter cells. This close association between cell doublings and DNA synthesis is very attractive for assessing cell proliferation. If labelled DNA precursors are added to the cell culture, cells that are about to divide incorporate the labelled nucleotide into their DNA. Traditionally, those assays usually involve the use of radiolabelled nucleosides, particularly tritiated thymidine ([^3H]-TdR). The amount of [^3H]-TdR incorporated into the cellular DNA is quantified by liquid scintillation counting.
Human heparinized peripheral blood was obtained from healthy volunteers by cubital vein punction. The blood was diluted in PBS (1:3) and mononuclear cells were separated by centrifugation in Ficoll-Hypaque density gradient (Pharmacia, 1.077 g/ml) at 2200 rpm for 30 minutes. Following centrifugation, lymphocytes were washed in PBS and resuspended in cell culture medium (RMPI 1640, 2 mM glutamine, 100 U/ml penicillin, 100 μg/ml streptomycin, 10% fetal calf serum and sodium bicarbonate).
The cells were diluted at target density of 1.100.000 cells/ml and were added by pipette (180 μl) into 96-well microtiter plates. Four-fold dilutions of the intended test concentration were added at time zero in 20 μl aliquots to the microtiter plate wells. Usually, test compound was evaluated at six 4-fold dilutions. In routine testing, the highest well concentration was 266.7 μM. All drug concentrations were examined in duplicates. All wells with exception of unstimulated controls were activated with 50 μl of concanavalin A (25 μg/ml). Incubations of cells with test compounds lasted for 72 hours at 37° C., in 5% CO2 atmosphere and 100% humidity. At the end of incubation period, the cells were assayed by using the [^3H]-TdR:
Cell cultures were incubated with 0.5 μCi (20 μl of stock solution 500 μCi/ml) per well for 6 hours at 37° C. and 5% CO2. The automated cell harvester was used to lyse cells in water and adsorb the DNA onto glass-fiber filters in the format of microtiter plate. The DNA incorporated [^3H]-TdR was retained on the filter while unincorporated material passes through. The filters were dried at room temperature overnight, sealed into a sample bag with 10-12 ml of scintillant. The amount of [^3H]-TdR present in each filter (in cpm) was determined by scintillation counting in a Betaplate liquid scintillation counter. The effective dose of immunosuppressant (ED) was calculated using the following equation: ED=(CCPMdrug exposed well/mean CCPMcontrol wells)×100%. The ED50 value, the drug concentration inhibiting proliferation of 50% of lymphocytes, was calculated from the obtained dose response curves.
To evaluate immunosuppressive activity of substituted adenines, their ability to inhibit polyclonal mitogen induced proliferation of normal human lymphocytes was analyzed (Table 4). […] Effective immunosuppressive dose of new derivatives under in vitro conditions was close to 10-40 μM.

[4] = system: CEM (T-lymphoblastoid leukemia); experiment: Calcein AM cytotoxicity assay, CEM; type: cell-based; details: 72 hours incubation, Calcein AM
From the text: as §1, §2, §3, §4

[5] = system: HL-60 (promyelocytic leukemia); experiment: Calcein AM cytotoxicity assay, HL60; type: cell-based, human; details: 72 hours incubation
From the text: as §1, §2, §3, §4

MCF-7 (breast carcinoma) = experiment: Calcein AM cytotoxicity assay, MCF7; type: cell-based; details: 72 hours incubation
From the text: as §1, §2, §3, §4

[6] = system: K-562 (human erythroleukemia); experiment: Calcein AM cytotoxicity assay, K-562; type: cell-based; details: 72 hours incubation
From the text: as §1, §2, §3, §4

- EC50 (Human lymphocytes): 8.7 µM
Compound: O=P(O)(O)OC[C@H]1O[C@@H](n2cnc3c(NCc4ccccc4Cl)ncnc32)[C@H](O)[C@@H]1O [Compound 4, 6-(2-chlorobenzylamino)purine riboside-5′-monophosphate]
- Activity (%) [10^−5 mol · l^−1 KR = 100%] [1]: 121 ± 4%
- Concentration with highest activity [1]: 10^−6 mol · l^−1
- GI50 [2]: > 167 µM
- GI50 [3]: > 167 µM
- GI50 [4]: 14.5 µM
- GI50 [5]: 1.6 µM
- GI50 (MCF-7 (breast carcinoma)): > 167 µM
- GI50 [6]: 64 µM

- EC50 (Human lymphocytes): 13.4 µM
Compound: O=P(O)(O)OC[C@H]1O[C@@H](n2cnc3c(NCc4ccc(F)cc4)ncnc32)[C@H](O)[C@@H]1O [Compound 3, 6-(4-fluorobenzylamino)purine riboside-5′-monophosphate]
- GI50 [2]: > 167 µM
- GI50 [3]: 20 µM
- GI50 [4]: 1.5 µM
- GI50 [5]: 0.86 µM
- GI50 (MCF-7 (breast carcinoma)): 14 µM
- GI50 [6]: 6.4 µM

- EC50 (Human lymphocytes): 6.3 µM
Compound: O=P(O)(O)OC[C@H]1O[C@@H](n2cnc3c(NCc4ccccc4F)ncnc32)[C@H](O)[C@@H]1O [Compound 1, 6-(2-fluorobenzylamino)purine riboside-5′-monophosphate]
- Activity (%) [10^−5 mol · l^−1 KR = 100%] [1]: 100 ± 9%
- Concentration with highest activity [1]: 10^−6 mol · l^−1
- GI50 [3]: > 167 µM
- GI50 [4]: 4.6 µM
- GI50 [5]: 3.2 µM
- GI50 (MCF-7 (breast carcinoma)): > 167 µM
- GI50 [6]: 33.2 µM

- EC50 (Human lymphocytes): 3.2 µM
Compound: O=P(O)(O)OC[C@H]1O[C@@H](n2cnc3c(NCc4cccc(Cl)c4O)ncnc32)[C@H](O)[C@@H]1O [2-hydroxy-3-chlorobenzylamino, 6-(2-hydroxy-3-chlorobenzylamino)purine ribo side-5′-monophosphate]

- EC50 (Human lymphocytes): 3.2 µM
Compound: O=P(O)(O)OC[C@H]1O[C@@H](n2cnc3c(NCc4cccc(Cl)c4)ncnc32)[C@H](O)[C@@H]1O [Compound 5, 6-(3-chlorobenzylamino)purine riboside-5′-monophosphate]
- Activity (%) [10^−5 mol · l^−1 KR = 100%] [1]: 109 ± 5%
- Concentration with highest activity [1]: 10^−5 mol · l^−1
- GI50 [2]: > 167 µM
- GI50 [3]: > 167 µM
- GI50 [4]: 1.6 µM
- GI50 [5]: 0.75 µM
- GI50 (MCF-7 (breast carcinoma)): > 167 µM
- GI50 [6]: 30.4 µM

- EC50 (Human lymphocytes): 9.4 µM
Compound: O=P(O)(O)OC[C@H]1O[C@@H](n2cnc3c(NCc4ccc(O)c(O)c4)ncnc32)[C@H](O)[C@@H]1O [3,4-dihydroxybenzylamino, 6-(3,4-dihydroxybenzylamino)purine riboside-5′-monophosphate]

- EC50 (Human lymphocytes): 3.3 µM
Compound: O=P(O)(O)OC[C@H]1O[C@@H](n2cnc3c(NCc4ccc(Cl)cc4)ncnc32)[C@H](O)[C@@H]1O [Compound 6, 6-(4-chlorobenzylamino)purine riboside-5′-monophosphate]
- GI50 [2]: > 167 µM
- GI50 [3]: > 167 µM
- GI50 [4]: 6.5 µM
- GI50 [5]: 5.3 µM
- GI50 (MCF-7 (breast carcinoma)): > 167 µM
- GI50 [6]: 16.1 µM

- EC50 (Human lymphocytes): 7.5 µM
Compound: Cc1cccc(CNc2ncnc3c2ncn3[C@@H]2O[C@H](COP(=O)(O)O)[C@@H](O)[C@H]2O)c1 [Compound 13, 6-(3-methylbenzylamino)purine riboside-5′-monophosphate]
- GI50 [2]: > 167 µM
- GI50 [3]: > 167 µM
- GI50 [4]: 19.1 µM
- GI50 [5]: 6.4 µM
- GI50 (MCF-7 (breast carcinoma)): > 167 µM
- GI50 [6]: > 167 µM

- EC50 (Human lymphocytes): 2.1 µM
Compound: COc1ccc(CNc2ncnc3c2ncn3[C@@H]2O[C@H](COP(=O)(O)O)[C@@H](O)[C@H]2O)c(O)c1 [2-hydroxy-4-methoxybenzylamino, 6-(2-hydroxy-4-methoxybenzylamino)purine riboside-5′-monophosphate]

- EC50 (Human lymphocytes): 7.3 µM
Compound: Cc1ccccc1CNc1ncnc2c1ncn2[C@@H]1O[C@H](COP(=O)(O)O)[C@@H](O)[C@H]1O [Compound 12, 6-(2-methylbenzylamino)purine riboside-5′-monophosphate]
- Activity (%) [10^−5 mol · l^−1 KR = 100%] [1]: 108 ± 4%
- Concentration with highest activity [1]: 10^−6 mol · l^−1
- GI50 [2]: > 167 µM
- GI50 [3]: > 167 µM
- GI50 [4]: 14 µM
- GI50 [5]: 3.3 µM
- GI50 (MCF-7 (breast carcinoma)): > 167 µM
- GI50 [6]: > 167 µM

Source: patent publication US9073961B2, “Substitution derivatives of N6 -benzyladenosine-5′-monophosphate, methods of preparation thereof, use thereof as medicaments, and therapeutic preparations containing these compounds” (UNIVERZITA PALACKEHO V OLOMOUCI, priority 2010, dated 2015)
